Assay results as given in patent US20020137929A1, “1 - (3-heterocyclylphenyl) isothiourea, -isourea, -guanidine and -amidine herbicidal agents” (Intellectual Property Department, BASF Aktiengesellschaft, priority 1998, published 2002).

What was measured:
CYPSE (Flatsedge) = test: Postemergence weed control under flooded paddy conditions; assay type: in vivo, Cyperus serotinus; conditions: postemergence weeds, rated 3 to 4 weeks after treatment
Outline: (§1)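 Injury ratings (0–9 scale covering stand, vigor, malformation, size, chlorosis and overall appearance versus control) were made three to four weeks after treatment. Test material, about 0.0313 to 0.500 kg/ha a.i. in 50/50 v/v aqueous/acetone, was added to flood water 1.5 to 3 cm deep over 3 to 5 cm weeds and 1.5 to 2.5 leaf rice.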

ZEAMX (Corn, Field) = test: Preemergence herbicidal evaluation; assay type: in vivo, Zea mays; conditions: preemergence, rated 4-5 weeks after treatment, 0-9 scale
Outline: (§2)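 Scores use a 0–9 visual scale covering stand, vigor, malformation, size and chlorosis relative to controls, rated four to five weeks after treatment. Before emergence, soil-planted seeds were sprayed with compound in aqueous acetone at roughly 0.0156–0.500 kg/ha and held in the greenhouse.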

MOOVA (Monochoria) = test: Preemergence weed control under flooded paddy conditions; assay type: in vivo, Monochoria vaginalis; conditions: rated 3-4 weeks after treatment
Outline: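 Greenhouse paddy assay. Acetone/water (50/50 v/v) solutions dosed into flood water, equivalent to about 0.0313 to 0.500 kg/ha active ingredient, over seeds planted 0.5 cm deep in silt loam. Score: 0-9 visual, based on stand, vigor, malformation, size and chlorosis, 3 to 4 weeks after treatment.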

ORYSAT (Rice, Tebonnet) = test: Postemergence herbicidal evaluation; assay type: in vivo, Oryza sativa, (L.) Tebonnet; conditions: postemergence
Outline: (§3)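 Each compound, dispersed in an acetone/water mix (50/50) carrying 0.5% TWEEN 20, is nozzle-sprayed at 40 psi on approximately two-week-old seedlings at about 0.0156–0.500 kg/ha. Plants are assessed 4–5 weeks afterward on a 0–9 scale relative to control; duplicate tests are averaged.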

GALAP (Galium) = test: Postemergence herbicidal evaluation; assay type: in vivo, Galium aparine; conditions: postemergence
Outline: as §3

[1] = tested on: ECHORC (Watergrass (Calif.)); test: Preemergence weed control under flooded paddy conditions; assay type: in vivo, Echinochloa oryzoides; conditions: rated 3-4 weeks after treatment
Outline: (§4)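 Visual injury scored 0-9 against control three to four weeks post-treatment, greenhouse-grown. Application: acetone/water (50/50) solutions dosed directly into flood water (1.5-3 cm over silt loam, planted top 0.5 cm), roughly 0.0313 to 0.500 kg/ha active ingredient.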

[2] = tested on: IPOHE (Morningglory, Ivyleaf); test: Preemergence herbicidal evaluation; assay type: in vivo, Ipomoea hederacea; conditions: preemergence, rated 4-5 weeks after treatment, 0-9 scale
Outline: as §2

ECHCG (Barnyardgrass) = test: Postemergence herbicidal evaluation; assay type: in vivo, Echinochloa crus-galli; conditions: postemergence
Outline: as §3

[3] = tested on: TRZAWR (Wheat, Winter, cv Riband); test: Preemergence herbicidal evaluation; assay type: in vivo, Triticum aestivum; conditions: preemergence, rated 4-5 weeks after treatment, 0-9 scale
Outline: as §2

SETVI (Foxtail, Green) = test: Postemergence herbicidal evaluation; assay type: in vivo, Setaria viridis; conditions: postemergence
Outline: as §3

CYPIR (Rice Flatsedge) [4] = test: Preemergence weed control under flooded paddy conditions; assay type: in vivo, Cyperus iria; conditions: rated 3-4 weeks after treatment
Outline: as §4

CYPIR (Rice Flatsedge) [5] = test: Postemergence weed control under flooded paddy conditions; assay type: in vivo, Cyperus iria; conditions: postemergence weeds, rated 3 to 4 weeks after treatment
Outline: as §1

ABUTH (Velvetleaf) = test: Postemergence herbicidal evaluation; assay type: in vivo, Abutilon theophrasti; conditions: postemergence
Outline: as §3

[6] = tested on: SAGPY (Arrowhead (Pygmaea)); test: Postemergence weed control under flooded paddy conditions; assay type: in vivo, Sagittaria pygmaea; conditions: postemergence weeds, rated 3 to 4 weeks after treatment
Outline: as §1

Compound: CN1C(=O)C(CC(=O)OCCF)SC1=Nc1cc(-n2c(=O)cc(C(F)(F)F)n(C)c2=O)c(F)cc1Cl (stereo not drawn) [Compound 93, 2-Fluoroethyl 2-{{2-chloro-5-[3,6-dihydro-3-methyl-2,6-dioxo-4-(trifluoromethyl)-1(2H)-pyrimidinyl]-4-fluorophenyl}imino}-3-methyl-4-oxo-5-thiazolidineacetate]
- Herbicidal rating CYPSE (CYPSE (Flatsedge); Rate 0.0313 kg/ha): 0.0
- Herbicidal rating CYPSE (CYPSE (Flatsedge); Rate 0.0625 kg/ha): 0.0
- Herbicidal rating CYPSE (CYPSE (Flatsedge); Rate 0.1250 kg/ha): 5.0
- Herbicidal rating CYPSE (CYPSE (Flatsedge); Rate 0.2500 kg/ha): 9.0
- ZEAMX rating (ZEAMX (Corn, Field); 0.0313 kg/ha): 0.0
- ZEAMX rating (ZEAMX (Corn, Field); 0.0625 kg/ha): 0.0
- ZEAMX rating (ZEAMX (Corn, Field); 0.1250 kg/ha): 1.0
- ZEAMX rating (ZEAMX (Corn, Field); 0.2500 kg/ha): 6.0
- MOOVA herbicidal effect rating (MOOVA (Monochoria); 0.0313 kg/ha): 9.0
- MOOVA herbicidal effect rating (MOOVA (Monochoria); 0.0625 kg/ha): 9.0
- MOOVA herbicidal effect rating (MOOVA (Monochoria); 0.1250 kg/ha): 9.0
- MOOVA herbicidal effect rating (MOOVA (Monochoria); 0.2500 kg/ha): 9.0
- ORYSAT herbicidal rating (ORYSAT (Rice, Tebonnet); rate 0.0158 kg/ha): 1.0
- ORYSAT herbicidal rating (ORYSAT (Rice, Tebonnet); rate 0.0315 kg/ha): 4.0
- ORYSAT herbicidal rating (ORYSAT (Rice, Tebonnet); rate 0.0630 kg/ha): 6.0
- GALAP herbicidal rating (GALAP (Galium); rate 0.0158 kg/ha): 0.0
- GALAP herbicidal rating (GALAP (Galium); rate 0.0315 kg/ha): 5.0
- GALAP herbicidal rating (GALAP (Galium); rate 0.0630 kg/ha): 6.0
- ECHORC herbicidal effect rating ([1]; 0.0313 kg/ha): 0.0
- ECHORC herbicidal effect rating ([1]; 0.0625 kg/ha): 3.0
- ECHORC herbicidal effect rating ([1]; 0.1250 kg/ha): 4.0
- ECHORC herbicidal effect rating ([1]; 0.2500 kg/ha): 7.0
- IPOHE rating ([2]; 0.0313 kg/ha): 0.0
- IPOHE rating ([2]; 0.0625 kg/ha): 2.0
- IPOHE rating ([2]; 0.1250 kg/ha): 9.0
- IPOHE rating ([2]; 0.2500 kg/ha): 9.0
- ECHCG herbicidal rating (ECHCG (Barnyardgrass); rate 0.0158 kg/ha): 0.0
- ECHCG herbicidal rating (ECHCG (Barnyardgrass); rate 0.0315 kg/ha): 2.0
- ECHCG herbicidal rating (ECHCG (Barnyardgrass); rate 0.0630 kg/ha): 7.0
- TRZAWR rating ([3]; 0.0313 kg/ha): 0.0
- TRZAWR rating ([3]; 0.0625 kg/ha): 0.0
- TRZAWR rating ([3]; 0.1250 kg/ha): 2.0
- TRZAWR rating ([3]; 0.2500 kg/ha): 7.0
- SETVI herbicidal rating (SETVI (Foxtail, Green); rate 0.0158 kg/ha): 9.0
- SETVI herbicidal rating (SETVI (Foxtail, Green); rate 0.0315 kg/ha): 9.0
- SETVI herbicidal rating (SETVI (Foxtail, Green); rate 0.0630 kg/ha): 9.0
- CYPIR herbicidal effect rating (CYPIR (Rice Flatsedge) [4]; 0.0313 kg/ha): 0.0
- CYPIR herbicidal effect rating (CYPIR (Rice Flatsedge) [4]; 0.0625 kg/ha): 0.0
- CYPIR herbicidal effect rating (CYPIR (Rice Flatsedge) [4]; 0.1250 kg/ha): 0.0
- CYPIR herbicidal effect rating (CYPIR (Rice Flatsedge) [4]; 0.2500 kg/ha): 0.0
- Herbicidal rating CYPIR (CYPIR (Rice Flatsedge) [5]; Rate 0.0313 kg/ha): 0.0
- Herbicidal rating CYPIR (CYPIR (Rice Flatsedge) [5]; Rate 0.0625 kg/ha): 0.0
- Herbicidal rating CYPIR (CYPIR (Rice Flatsedge) [5]; Rate 0.1250 kg/ha): 0.0
- Herbicidal rating CYPIR (CYPIR (Rice Flatsedge) [5]; Rate 0.2500 kg/ha): 0.0
- ABUTH herbicidal rating (ABUTH (Velvetleaf); rate 0.0158 kg/ha): 9.0
- ABUTH herbicidal rating (ABUTH (Velvetleaf); rate 0.0315 kg/ha): 9.0
- ABUTH herbicidal rating (ABUTH (Velvetleaf); rate 0.0630 kg/ha): 9.0
- Herbicidal rating SAGPY ([6]; Rate 0.0313 kg/ha): 0.0
- Herbicidal rating SAGPY ([6]; Rate 0.0625 kg/ha): 0.0
- Herbicidal rating SAGPY ([6]; Rate 0.1250 kg/ha): 3.0
- Herbicidal rating SAGPY ([6]; Rate 0.2500 kg/ha): 9.0
